Patent EP0167943A2, “Benzimidazole derivatives, process for their preparation, and their use as pharmaceuticals” (BEECHAM GROUP PLC, priority 1984, dated 1986)

Tested on: gastric acid secretion
Assay: perfused rat stomach preparation (histamine-stimulated acid secretion, perfusate pH)
Type: in vivo, male Wistar rats
Conditions: bolus intravenous injection, maximal reduction in hydrogen-ion concentration as percentage of control, histamine infusion, urethane anaesthetised rat
Protocol: The ability of the compounds of the invention to modify the pH of gastric acid secretion was investigated as follows:
The perfused rat stomach preparation
The lumen of the stomach of male Wistar rats (approximately 200 g bodyweight) was perfused, via a cannula designed to reduce the dead space of the stomach, with 5% glucose solution (37^00) at the rate of 3 ml/min. The perfusate was forced over the surface of the secretory mucosa only, the antrum being excluded. The effluent then passed over a microflow type glass pH electrode via collecting funnel situated in the non-glandular forestomach.
The secretagogue histamine was administered as a constant intravenous infusion to produce a steady rate of acid secretion. Test compounds were administered in solution as bolus intravenous injections and any effect on the pH of the perfusate noted. The perfusate pH was recorded on a potentiometric recorder and anti-secretory responses were measured in terms of the maximal reduction in hydrogen-ion concentration expressed as a percentage of the 'control' concentrations.

Molecule: Cc1c(OCc2ccccc2)ccnc1C[S+]([O-])c1nc2ccccc2[nH]1 (centres unmarked) [Example 1b, 2-[(4-Benzyloxy-3-methylpyrid-2-yl)methylsulphinyl]-benzimidazole]
- Inhibition (dose 0.5 µmol/kg): 82%

Molecule: [O-][S+](Cc1cc(OCc2ccc(F)cc2)ccn1)c1nc2ccccc2[nH]1 (centres unmarked) [Example 21b, 2-[(4-(4-Fluorobenzyloxy)pyrid-2-yl)methylsuphinyl]-benzimidazole]
- Inhibition (dose 2 (µmol/kg)): 100%

Molecule: Cc1c(OCc2ccc(F)cc2)ccnc1C[S+]([O-])c1nc2ccccc2[nH]1 (centres unmarked) [Example 10b, 2-[(4-[4-Fluorobenzyloxy]-3-methylpyrid-2-yl)methylsulphinyl]benzimidazole]
- Inhibition (dose 1 (µmol/kg)): 80%

Molecule: COc1ccc(COc2ccnc(C[S+]([O-])c3nc4ccccc4[nH]3)c2C)cc1 (centres unmarked) [Example 7b, 2-[(4-[4-methoxybenzyloxy]-3-methylpyrid-2-yl)methylsulphinyl]benzimidazole]
- Inhibition (dose 2 (µmol/kg)): 86%

Molecule: Cc1c(Oc2ccccc2)ccnc1C[S+]([O-])c1nc2ccccc2[nH]1 (centres unmarked) [Example 20b, 2-[(3-Methyl-4-phenoxypyrid-2-yl)methylsulphinyl]-benzimidazole]
- Inhibition (dose 2 (µmol/kg)): 72%

Molecule: 2-[(4-[3,5-dichlorobenzyloxy]-3-methylpyrid-2-yl)methyl sulphinyl]benzimidazole [Example 8b]
- Inhibition (dose 2 (µmol/kg)): 80%

Molecule: [O-][S+](Cc1cc(OCCc2ccccc2)ccn1)c1nc2ccccc2[nH]1 (centres unmarked) [Example 18b, 2-[(4'-Phenethyloxypyrid-2-yl)methylsulphinyl]benzimidazole]
- Inhibition (dose 2 (µmol/kg)): 100%

Molecule: Cc1cnc(C[S+]([O-])c2nc3ccccc3[nH]2)cc1OCc1ccccc1 (centres unmarked) [Example 24b]
- Inhibition (dose 2.5 (µmol/kg)): 91%
